Test results from ChEMBL document CHEMBL1201862, “PubChem BioAssay data set” (2004).
One block for each molecule: values may come before it. Active and inactive are the calls of the source.

Columns and labels:
[1] = target: T1, Estrogen receptor beta (Homo sapiens, UniProt Q92731);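 note: recombinant ER-beta bound to coactivator SRC1 peptide in presence of estradiol agonist; inhibitors block coactivator peptide binding and lower the FRET signal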
[2] = target: T1, Estrogen receptor beta; assay: ERβ–SRC-3 coactivator interaction inhibitors, confirmation, orthogonal assay, biochemical, ELISA, streptavidin-HRP readout (AID 1060)
[3] = target: T2, Carboxy-terminal domain RNA polymerase II polypeptide A small phosphatase 1 (Homo sapiens, UniProt Q9GZU7); assay: inhibitors of CTDSP1, concentration-response testing, biochemical assay, absorbance-based, actives from ultra-high-throughput screening (AID 540297); type: functional
T2 sequence (Q9GZU7 whole entry): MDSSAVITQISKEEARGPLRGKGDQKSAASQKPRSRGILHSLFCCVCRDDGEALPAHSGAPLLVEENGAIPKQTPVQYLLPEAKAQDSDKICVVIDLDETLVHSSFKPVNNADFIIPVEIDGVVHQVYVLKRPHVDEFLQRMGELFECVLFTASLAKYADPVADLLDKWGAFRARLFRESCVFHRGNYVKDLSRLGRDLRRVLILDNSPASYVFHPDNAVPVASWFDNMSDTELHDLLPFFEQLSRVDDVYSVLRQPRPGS

[4] = target: T3, Estrogen receptor (Homo sapiens, UniProt P03372);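 note: potency for inhibiting coactivator peptide recruitment to the receptor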
T3 sequence (P03372 whole entry): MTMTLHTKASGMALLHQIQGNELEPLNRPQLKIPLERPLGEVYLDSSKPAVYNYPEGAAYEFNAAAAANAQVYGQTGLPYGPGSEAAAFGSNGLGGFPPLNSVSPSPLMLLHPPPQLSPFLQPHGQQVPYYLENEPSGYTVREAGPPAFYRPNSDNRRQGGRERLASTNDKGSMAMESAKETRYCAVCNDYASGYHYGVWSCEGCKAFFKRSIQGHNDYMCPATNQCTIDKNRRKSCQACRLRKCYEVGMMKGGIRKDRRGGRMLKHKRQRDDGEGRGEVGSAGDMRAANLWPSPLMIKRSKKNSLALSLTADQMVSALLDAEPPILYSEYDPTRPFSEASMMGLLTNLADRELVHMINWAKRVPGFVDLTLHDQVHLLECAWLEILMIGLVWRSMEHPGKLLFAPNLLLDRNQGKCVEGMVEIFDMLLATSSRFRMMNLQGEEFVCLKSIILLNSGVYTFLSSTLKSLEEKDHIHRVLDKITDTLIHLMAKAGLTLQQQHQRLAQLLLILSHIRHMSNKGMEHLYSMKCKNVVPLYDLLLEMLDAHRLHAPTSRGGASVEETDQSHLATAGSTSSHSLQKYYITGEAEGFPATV

[5] = cytotoxicity in HPDE-C7 cells, cell-based, fluorescence, HTS (AID 430); type: functional; settings: Homo sapiens
[6] = cytotoxicity in KRAS-transformed pancreatic duct cells, primary screen, cell-based, fluorescence, HTS (AID 431); type: functional; settings: Homo sapiens;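 note: cell line used: HPDE-C7K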
[7] = growth suppression of PTEN-null colon cells, dose response, cell-based, HCT116 PTEN knockout (AID 1047); type: functional;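 note: HCT116 colon tumor cells with PTEN knocked out; cells exposed to compound for 60 hours before readout; potency for loss of cell viability measured by luminescence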
[8] = target: FAD-linked sulfhydryl oxidase ALR (Homo sapiens, UniProt P55789); assay: inhibitors of human ALR sulfhydryl oxidase, dose response, biochemical, H2O2 detection, luminescence, cherry-pick (AID 493248)
[9] = growth suppression of beta-catenin-knockout colon cells, dose response, cell-based, HCT116, human colon tumor (AID 1045); type: functional;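 note: HCT116 colon tumor cells with beta catenin knocked out; cells exposed to compound for 60 hours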
[10] = C. albicans growth with fluconazole, confirmation, fluorescence, retest (AID 2467); type: functional, cell-based
[11] = tested on: BJ; assay: cells; type: functional, cell-based; settings: Homo sapiens
[12] = tested on: BJ; assay: cytotoxicity toward BJ-TERT-LT-ST fibroblasts, dose response, cell-based, RAS-independent, luminescence (AID 1935); type: functional; settings: Homo sapiens;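 note: BJ fibroblasts immortalized with TERT plus LT and ST oncogenes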
[13] = tested on: BJ; assay: cytotoxicity toward BJ-TERT fibroblasts, dose response, cell-based, RAS-independent, luminescence (AID 1933); type: functional; settings: Homo sapiens
[14] = NIH-3T3 fibroblast cytotoxicity, dose response, cytotoxicity control, cell-based, fluorescence, Alamar Blue, secondary assay (AID 2327); type: functional;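 note: NIH-3T3 mouse fibroblasts cultured with fluconazole at 8 µg/mL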
[15] = cytotoxicity toward DRD oncogenic fibroblasts, dose response, cell-based, non-viral oncogenic, luminescence (AID 1934); type: functional; settings: Homo sapiens
[16] = cells
[17] = inhibitors of intracellular T. cruzi replication, confirmation, NIH3T3 host cells, beta-gal luminescence (AID 2044); type: functional, cell-based;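 note: intracellular parasites grown in NIH/3T3 mouse fibroblasts as host cells; luminescent beta-galactosidase reporter signal from transgenic T. cruzi replicating inside host cells; inhibitors lower the luminescence signal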
[18] = cytotoxicity toward NIH3T3 fibroblasts, dose response, counter-screen, cell-based, ATP luminescence, mouse fibroblasts (AID 2010); type: functional;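 note: cells exposed to compound for about 90 hours before reading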
[19] = target: T4, Short transient receptor potential channel 4 (Mus musculus, UniProt Q9QUQ5); assay: mouse TRPC4 channel inhibitors, dose response, cell-based, HEK293 TRPC4/mu-opioid, Fluo-4 calcium (AID 434942); type: functional;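 note: potency of inhibitors blocking the TRPC4 calcium response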
T4 sequence (Q9QUQ5 whole entry): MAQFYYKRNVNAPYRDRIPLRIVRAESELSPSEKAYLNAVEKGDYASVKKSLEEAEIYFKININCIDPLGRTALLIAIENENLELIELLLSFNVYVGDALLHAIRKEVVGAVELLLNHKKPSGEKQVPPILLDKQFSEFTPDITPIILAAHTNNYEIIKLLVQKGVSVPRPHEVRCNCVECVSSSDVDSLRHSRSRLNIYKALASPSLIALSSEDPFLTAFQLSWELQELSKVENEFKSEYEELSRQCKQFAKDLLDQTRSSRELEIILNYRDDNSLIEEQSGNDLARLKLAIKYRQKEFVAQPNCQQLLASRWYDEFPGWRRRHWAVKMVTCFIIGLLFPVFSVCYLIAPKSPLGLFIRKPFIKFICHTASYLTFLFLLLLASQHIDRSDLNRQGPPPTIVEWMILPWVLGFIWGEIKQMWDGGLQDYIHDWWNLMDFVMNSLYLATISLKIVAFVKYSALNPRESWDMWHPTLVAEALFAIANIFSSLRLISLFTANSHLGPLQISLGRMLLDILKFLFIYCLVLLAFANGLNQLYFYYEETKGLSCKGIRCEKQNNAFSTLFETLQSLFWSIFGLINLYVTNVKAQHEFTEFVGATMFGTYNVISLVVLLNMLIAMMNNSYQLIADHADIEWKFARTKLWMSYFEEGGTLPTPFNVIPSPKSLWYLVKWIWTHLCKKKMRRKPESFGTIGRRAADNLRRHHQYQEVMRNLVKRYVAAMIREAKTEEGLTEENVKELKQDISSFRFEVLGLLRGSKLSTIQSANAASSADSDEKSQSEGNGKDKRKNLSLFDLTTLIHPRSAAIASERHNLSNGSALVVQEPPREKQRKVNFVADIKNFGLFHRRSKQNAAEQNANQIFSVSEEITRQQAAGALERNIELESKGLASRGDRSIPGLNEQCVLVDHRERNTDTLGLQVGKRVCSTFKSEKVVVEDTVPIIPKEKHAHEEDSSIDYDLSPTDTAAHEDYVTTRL

[20] = inhibitors of Vif binding to APOBEC3G peptide, primary screen, biochemical, TR-FRET, GST-Vif 1-94, biotin-A3G peptide, dose response retest (AID 1117319); type: functional;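 note: TR-FRET signal of purified GST-Vif binding a biotinylated A3G peptide; inhibitors lower the FRET signal by blocking Vif and A3G binding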
[21] = target: T5, Aminopeptidase N (Plasmodium falciparum FcB1/Columbia, UniProt O96935); assay: P. falciparum M1AAP inhibitors, biochemical, fluorogenic H-Leu-NHMec substrate, 1536-well (AID 1445); design: species or system Plasmodium falciparum 3D7, 3D7
T5 sequence (O96935 whole entry): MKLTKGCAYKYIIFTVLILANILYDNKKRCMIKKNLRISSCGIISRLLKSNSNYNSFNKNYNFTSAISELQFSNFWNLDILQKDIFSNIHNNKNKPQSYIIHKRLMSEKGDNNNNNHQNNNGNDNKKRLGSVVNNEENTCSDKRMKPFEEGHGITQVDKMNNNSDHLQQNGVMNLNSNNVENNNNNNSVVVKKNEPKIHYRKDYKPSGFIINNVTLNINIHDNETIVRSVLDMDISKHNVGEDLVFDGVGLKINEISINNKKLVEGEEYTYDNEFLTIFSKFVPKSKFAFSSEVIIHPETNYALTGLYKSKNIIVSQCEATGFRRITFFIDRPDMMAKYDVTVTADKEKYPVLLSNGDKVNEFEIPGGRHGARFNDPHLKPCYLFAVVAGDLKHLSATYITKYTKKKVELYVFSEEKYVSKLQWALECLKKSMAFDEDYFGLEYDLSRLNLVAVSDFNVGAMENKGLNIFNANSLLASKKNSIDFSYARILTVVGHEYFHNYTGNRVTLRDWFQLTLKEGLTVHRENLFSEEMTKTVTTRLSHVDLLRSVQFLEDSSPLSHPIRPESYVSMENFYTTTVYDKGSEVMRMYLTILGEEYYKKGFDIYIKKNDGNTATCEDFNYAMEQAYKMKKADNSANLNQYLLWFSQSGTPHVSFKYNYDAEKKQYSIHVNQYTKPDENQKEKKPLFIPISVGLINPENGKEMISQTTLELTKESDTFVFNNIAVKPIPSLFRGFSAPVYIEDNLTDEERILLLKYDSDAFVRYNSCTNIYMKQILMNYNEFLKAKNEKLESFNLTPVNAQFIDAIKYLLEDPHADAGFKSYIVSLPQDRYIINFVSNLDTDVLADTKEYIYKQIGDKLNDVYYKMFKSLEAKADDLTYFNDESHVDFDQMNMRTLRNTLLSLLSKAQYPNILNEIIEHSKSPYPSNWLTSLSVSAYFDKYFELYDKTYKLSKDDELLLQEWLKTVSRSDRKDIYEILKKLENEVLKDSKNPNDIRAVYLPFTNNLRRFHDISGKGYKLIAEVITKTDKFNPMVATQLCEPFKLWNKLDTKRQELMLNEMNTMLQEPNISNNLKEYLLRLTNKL

[22] = target: T6, Caspase-6 (Homo sapiens, UniProt P55212); assay: human caspase-6 inhibitors, dose response, biochemical, VEID-R110 fluorescence, cherry-pick (AID 720632)
T6 sequence (P55212 whole entry): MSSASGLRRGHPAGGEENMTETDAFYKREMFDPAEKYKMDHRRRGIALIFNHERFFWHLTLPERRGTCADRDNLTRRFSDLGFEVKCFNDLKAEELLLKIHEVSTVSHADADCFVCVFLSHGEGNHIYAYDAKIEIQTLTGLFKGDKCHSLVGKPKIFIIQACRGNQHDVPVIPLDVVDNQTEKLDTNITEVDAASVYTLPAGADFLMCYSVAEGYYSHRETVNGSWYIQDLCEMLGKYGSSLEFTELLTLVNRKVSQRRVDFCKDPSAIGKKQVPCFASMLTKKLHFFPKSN

[23] = P. falciparum Dd2 growth inhibitors, dose response, SYBR Green, cherry-picked samples (AID 1159567); type: functional, cell-based
[24] = P. falciparum ATP4 D1247Y mutant growth inhibitors, dose response, NITD609-resistant line, SYBR Green, dry powder (AID 1159571); type: functional, cell-based;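 note: parasites synchronized at ring stage by sorbitol before testing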
[25] = P. falciparum 3D7-ScDHODH growth inhibitors, dose response, SYBR Green, dry powder samples (AID 1159570); type: functional, cell-based;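 note: parasite growth measured after 72 hours of compound exposure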
[26] = HepG2 cell cytotoxicity, dose response, cytotoxicity control, plate reader, dry powder samples (AID 1159569); type: functional, cell-based;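 note: inhibitor potency with signal falling toward the positive control level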
[27] = P. falciparum Dd2 growth inhibitors, dose response, SYBR Green, dry powder samples (AID 1159566); type: functional, cell-based;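 note: potency for growth inhibition with lower SYBR green DNA signal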
[28] = HepG2 cell cytotoxicity, dose response, cytotoxicity control, cherry-picked samples (AID 1159577); type: functional, cell-based

T1 sequence (Q92731 whole entry): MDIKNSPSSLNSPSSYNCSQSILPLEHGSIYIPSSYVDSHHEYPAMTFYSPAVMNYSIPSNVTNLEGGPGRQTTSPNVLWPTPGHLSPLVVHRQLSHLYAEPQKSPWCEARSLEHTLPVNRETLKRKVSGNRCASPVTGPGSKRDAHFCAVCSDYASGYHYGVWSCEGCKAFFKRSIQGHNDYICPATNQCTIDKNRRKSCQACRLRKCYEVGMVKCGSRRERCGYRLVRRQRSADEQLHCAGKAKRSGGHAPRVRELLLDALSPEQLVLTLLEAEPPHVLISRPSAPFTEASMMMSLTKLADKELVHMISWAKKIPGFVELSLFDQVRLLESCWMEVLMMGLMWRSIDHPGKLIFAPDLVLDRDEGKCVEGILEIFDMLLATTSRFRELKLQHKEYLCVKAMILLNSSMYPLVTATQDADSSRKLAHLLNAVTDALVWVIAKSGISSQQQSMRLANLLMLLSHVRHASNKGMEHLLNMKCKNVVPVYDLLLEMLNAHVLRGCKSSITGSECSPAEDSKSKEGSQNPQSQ
Sequence of FAD-linked sulfhydryl oxidase ALR (P55789 whole entry): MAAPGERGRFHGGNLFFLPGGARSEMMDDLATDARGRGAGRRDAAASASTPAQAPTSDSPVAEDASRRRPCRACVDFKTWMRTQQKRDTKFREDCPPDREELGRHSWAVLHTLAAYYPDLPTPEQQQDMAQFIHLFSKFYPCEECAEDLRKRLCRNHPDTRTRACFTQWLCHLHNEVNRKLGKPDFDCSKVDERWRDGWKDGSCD

IC50 [1]: 6.57 µM (active)
IC50 [2]: 24.9 µM (not active)
IC50 [3]: 4.93 µM (active)
IC50 [4]: 7.24 µM (active)
Compound: O=C(Cn1c(=O)n(Cc2ccco2)c(=O)c2c3c(sc21)CCCCC3)Nc1ccccc1

Compound: CCc1c(C)nc(SCC(=O)CC(=O)OC(C)C)c(C#N)c1C
EC50 [5]: 7.84 µM (active)
EC50 [6]: 10.7 µM (active)

Compound: Oc1ccc(Br)cc1-c1nc2cnccn2c1NC1CCCC1
EC50 [7]: 38.9 µM (active)
EC50 [5]: 17.3 µM (active)
AC50 [8]: 1.55 µM (active)
EC50 [9]: 36.4 µM (active)
EC50 [6]: 12.5 µM (active)

IC50 [1]: > 50 µM (not active)
Compound: Cc1csc2ncc(C(=O)N3c4ccccc4CC3C)c(=O)n12 (stereo not drawn)

Compound: CCN(CC)c1ccc(/C=C/c2cccc[n+]2C)c(OC)c1
EC50 [10]: 0.34 µM (active)
EC50 [11]: 17.9 µM (active)
EC50 [12]: 13.7 µM (inconclusive)
EC50 [13]: 7.77 µM (active)
AC50 [8]: 0.452 µM (active)
EC50 [14]: > 150 µM (inactive)
EC50 [15]: 15.2 µM (active)
EC50 [16]: 0.023 µM (active)
EC50 [17]: < 0.1 µM (active)
EC50 [18]: > 60 µM (not active)

Compound: O=[N+]([O-])c1ccc(CN2CCN(Cc3c[nH]c4ccccc34)CC2)cc1
EC50 [16]: 0.249 µM (active)
EC50 [17]: < 0.1 µM (active)
EC50 [19]: 5.96 µM (active)
EC50 [18]: > 60 µM (not active)

IC50 [20]: > 100 µM (active)
Compound: CCc1cccc(NC(=O)CN(C)S(=O)(=O)c2cccc3nsnc23)c1

IC50 [20]: > 100 µM (active)
Compound: CCOc1ccc(C2c3c(oc4ccccc4c3=O)C(=O)N2CCCN2CCOCC2)cc1 (stereo not drawn)

Compound: O=C(C1=C[C@H](C2CCCCC2)C[C@H](OCCCCO)O1)N1CCN(Cc2ccc3c(c2)OCO3)CC1
EC50 [16]: 0.058 µM (active)
EC50 [17]: < 0.1 µM (active)
EC50 [18]: > 60 µM (not active)

IC50 [20]: > 100 µM (active)
Compound: O=C1C2CCCN2C(c2ccccc2)N1c1nccs1 (stereo not drawn)

IC50 [20]: > 100 µM (active)
Compound: CC(=O)N1CCc2cc(S(=O)(=O)NCCC(=O)Nc3cccc(C)c3C)ccc21

IC50 [1]: 18.5 µM (active)
IC50 [2]: 18.2 µM (not active)
Compound: CCOc1[nH]c(/N=C/c2ccco2)c(C#N)c1C#N

IC50 [21]: 54.1 µM (active)
AC50 [22]: 25.1 µM (active)
Compound: O=C(O)CC1SC(N/N=C/c2ccc(-c3ccc(Cl)c([N+](=O)[O-])c3)o2)=NC1=O (stereo not drawn)

Compound: COc1ccc2c3c(n(C)c2c1)[C@H](CO)N(CC1CCOCC1)CC31CCN(Cc2nccs2)CC1
AC50 [23]: 1.46 µM (active)
AC50 [24]: 1.32 µM (active)
AC50 [25]: 0.845 µM (active)
AC50 [26]: > 100 µM (inactive)
AC50 [27]: 1.1 µM (active)

Compound: OC[C@H]1Nc2ccc(C#Cc3ccc(F)cc3)cc2[C@H]2[C@@H]1CCN2Cc1ccc2c(c1)OCO2
AC50 [28]: 26.2 µM (active)
AC50 [23]: 2.75 µM (active)
AC50 [24]: 3.18 µM (active)
AC50 [25]: 4 µM (active)
AC50 [26]: 20.9 µM (active)
AC50 [27]: 3.38 µM (active)
